Reference: paper PMC6534582 (Nature Communications, 2019)
No end group written: not given here.

How the values were obtained:
[1] = test system: Jmjd3 mRNA in Mof^f/f;Cre-ER brown preadipocytes; assay: qRT-PCR of Jmjd3 mRNA (control gene); format: cell-based, mouse
Experimental: (§1) Mof^f/f mice were crossed with Cre-ER (Jackson no. 008463) to generate Mof^f/f;Cre-ER mice[10]. Primary brown preadipocytes were isolated from interscapular brown adipose tissue of newborn (P0) Mof^f/f;Cre-ER pups and immortalized by SV40T[38]. All mouse experiments were performed in accordance with the NIH Guide for the Care and Use of Laboratory Animals and approved by the Animal Care and Use Committee of NIDDK, NIH. For rescue experiment by ectopic expression of rat MOF, immortalized Mof^f/f;Cre-ER preadipocytes stably expressing WT or K274R MOF were established using lentivirus-mediated gene transfer. Briefly, 293FT lentiviral packaging cells were transfected with pLenti-CMV plasmids expressing MYC-tagged WT or K274R rat MOF. Preadipocytes were infected with those lentivirus-containing media, followed by puromycin selection for two passages. Those expressing MYC-tagged rat MOF were confirmed by western blot.
(§2) Western blot of histone modifications using acid extracts or of nuclear proteins using nuclear extracts were done as described[45],[46]. Total RNA was extracted using TRIzol (Invitrogen) and reverse transcribed using the ProtoScript II First-Strand cDNA Synthesis Kit (NEB), following the manufacturers’ instructions. qRT-PCR was done using the following SYBR green primers: Mof (forward, 5’–[…]–3’, and reverse, 5’–[…]–3’). qPCR was done using Luna® Universal qPCR Master Mix according to the manufacturers’ instructions (NEB). To detect truncated Mof transcripts after 4-OHT treatment (2 µM), RT-PCR was performed as described.

[2] = test system: Mof mRNA in Mof^f/f;Cre-ER brown preadipocytes; assay: qRT-PCR of Mof mRNA; format: cell-based, mouse
Experimental: as §1, §2

[3] = test system: Mof^f/f;Cre-ER brown preadipocytes; assay: Growth rate of Mof KO cells; format: cell-based, mouse; conditions: for growth rate of Mof KO cells: 4OHT
Experimental: as §1

[4] = test system: MLL4-PHD6 (aa 1503–1562), wild-type; assay: 1H,15N HSQC NMR titration of WT MLL4-PHD6; format: binding, human; conditions: for chemical shift perturbations (CSPs): 1H,15N HSQC titration, 0.15 mM 15N-labeled MLL4-PHD6, PBS pH 6.5, 298 K
Experimental: (§3) The PHD6 domain of human MLL4 (aa 1503–1562) was cloned into a pCool vector. […] The human MLL3 PHD7 domain (aa 1083–1143) was cloned into a pGEX-6p vector. All constructs were expressed in Rosetta2 (DE3) pLysS cells. Protein production was induced with 0.5 mM IPTG overnight at 16̊ °C in Luria broth (LB) or minimal media (M9) supplemented with ^15NH4Cl and 0.06 mM ZnCl2 or ^15NH4Cl, ^13C-glucose, and 0.06 mM ZnCl2. The GST-tagged PHD proteins were purified on glutathione Sepharose 4B beads (GE Healthcare) in 50 mM Tris-HCl (pH 7.5) buffer, supplemented with 250 mM NaCl and 2 mM dithiothreitol (DTT). The GST tag was cleaved with Thrombin or TEV protease overnight at 4 °̊C. Unlabeled proteins were further purified by size exclusion chromatography and concentrated in Millipore concentrators. All mutants were generated by site-directed mutagenesis using the Stratagene QuikChange mutagenesis protocol, grown, and purified as WT proteins.
NMR samples for structure determination were prepared in 20 mM Tris-HCl (pH 7.0) buffer, supplemented with 100 mM NaCl, 5 mM DTT, and 8% D2O. […] 3D ^15N-/^13C-filtered ^13C- and ^15N-edited NOESY-HSQC spectra (mixing time of 150 ms) were collected to obtain intermolecular distance restraints.
(§4) For NMR titration experiments, ^1H,^15N HSQC spectra of 0.15 mM uniformly ^15N-labeled WT or mutated MLL4-PHD6 were recorded while peptides (synthesized by SynPeptide) were added stepwise. All experiments were carried out in phosphate-buffered saline buffer (pH 6.5).

MLL4-PHD6 = assay: 1H,15N HSQC of linked H4-G7-MLL4-PHD6 construct; format: binding, human
Experimental: as §3, §4

[5] = target: T1, PHD6 finger of human MLL4 (aa 1503-1562) (human, UniProt O14686 1503-1562); assay: NMR titration; 1H,15N HSQC spectra of 0.15 mM uniformly 15N-labelled MLL4-PHD6 while peptide was added stepwise up to a protein:peptide molar ratio of 1:5; phosphate-buffered saline pH 6.5; 298 K; conditions: both partners purified
T1 construct: PHD6 finger of human MLL4 (KMT2D), aa 1503-1562, cloned into a pCool vector; Uniformly 15N-labelled for the titrations at 0.15 mM; also called MLL4-PHD6; MLL4-PHD6 1503-1562; source: Rosetta2 (DE3) pLysS cells, purified (glutathione Sepharose 4B; GST tag cleaved)
T1 sequence (O14686 1503-1562): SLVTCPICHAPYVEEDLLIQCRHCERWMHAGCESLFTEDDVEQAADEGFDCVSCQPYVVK

[6] = target: T1, PHD6 finger of human MLL4 (aa 1503-1562); assay: NMR titration; 1H,15N HSQC spectra of 2.5 mM 13C/15N-labelled MLL4-PHD6 upon titration with H4K16ac (11-21) peptide at protein:ligand 1:0, 1:2, 1:3; 20 mM Tris-HCl pH 7.0, 100 mM NaCl, 5 mM DTT, 8% D2O; 298 K; conditions: both partners purified
[7] = target: T2, MLL4-PHD6 part of the linked H4-G7-MLL4-PHD6 construct (human, UniProt O14686 1503-1562); assay: NMR, 1H,15N HSQC spectra of a linked construct compared with free and peptide-bound PHD6; H4 (11–23) joined to MLL4-PHD6 on one chain through a hepta-glycine linker; wild type and H4 mutants; conditions: both partners purified
T2 construct: human MLL4 (KMT2D), PHD6 finger; aa 1503-1562 by the methods, 1503-1560 by the results; in the assay joined at its N-terminus through GGGGGGG to H4 residues 11-23 (m15 or its mutants) on one chain; also called H4_(11–23)-G7-PHD6 (PHD6 part); source: E. coli Rosetta2 (DE3) pLysS, purified
T2 sequence (O14686 1503-1562): as above

[8] = target: T3, PHD6 finger of MLL4 (MLL4-PHD6, aa 1503–1562), wild type (human, UniProt O14686 1503-1562); assay: NMR titration; 1H,15N HSQC of 0.15 mM uniformly 15N-labeled PHD finger (WT or mutated), peptides added stepwise; phosphate-buffered saline pH 6.5; 298 K; conditions: both partners purified
T3 construct: human MLL4 (KMT2D), PHD6 finger, aa 1503-1562; cloned into a pCool vector; 15N- or 13C/15N-labelled for NMR; also called MLL4-PHD6_(1503–1562); PHD6 domain of human MLL4; source: E. coli Rosetta2 (DE3) pLysS, purified (glutathione Sepharose, GST cleaved, SEC for unlabeled protein)
T3 sequence (O14686 1503-1562): as above

[9] = target: T3, PHD6 finger of MLL4 (MLL4-PHD6, aa …); assay: NMR structure; solution structure; 2.5 mM 13C/15N-labeled MLL4-PHD6 and 7.5 mM H4K16ac (11–21) peptide; 20 mM Tris-HCl pH 7.0, 100 mM NaCl, 5 mM DTT, 8% D2O; 298 K; conditions: both partners purified
[10] = 4OHT-treated, technical replicate 1
[11] = 4OHT-treated, technical replicate 2
[12] = after two rounds of 4OHT treatment

Molecule: CC/C(=C(\c1ccc(O)cc1)c1ccc(OCCN(C)C)cc1)c1ccccc1 [4OHT, 4-hydroxytamoxifen]
- relative Jmjd3 mRNA level ([1]; 4OHT-treated Mof^f/f;Cre-ER preadipocytes, average of two technical replicates, Mock average 1.00005, STDEV in own column): 0.8326
- relative Jmjd3 mRNA level [1, 10]: 0.841
- relative Jmjd3 mRNA level [1, 11]: 0.8241
- mRNA of control gene Jmjd3 [1, 12]: unaffected
- relative Mof mRNA level ([2]; 4OHT-treated Mof^f/f;Cre-ER preadipocytes, average of two technical replicates, single experiment, Mock average 1.00268, STDEV in own column): 0.1967
- relative Mof mRNA level [2, 10]: 0.2148
- relative Mof mRNA level [2, 11]: 0.1786
- mRNA level of Mof [2, 12]: significantly decreased
- growth rate of Mof KO cells ([3]; D1, average of two replicates (D0 = 1; Mock 3.715)): 2.81
- growth rate of Mof KO cells ([3]; D1, replicate 1 (Mock 3.89)): 2.98
- growth rate of Mof KO cells ([3]; D1, replicate 2 (Mock 3.54)): 2.64
- growth rate of Mof KO cells ([3]; D2, average of two replicates (D0 = 1; Mock 6.365)): 4.725
- growth rate of Mof KO cells ([3]; D2, replicate 1 (Mock 5.82)): 4.59
- growth rate of Mof KO cells ([3]; D2, replicate 2 (Mock 6.91)): 4.86
- growth rate of Mof KO cells ([3]; D3, average of two replicates (D0 = 1; Mock 10.695)): 7.02
- growth rate of Mof KO cells ([3]; D3, replicate 1 (Mock 9.81)): 6.59
- growth rate of Mof KO cells ([3]; D3, replicate 2 (Mock 11.58)): 7.45
- growth rate of Mof KO cells ([3]; D4, average of two replicates (D0 = 1; Mock 17.965)): 12
- growth rate of Mof KO cells ([3]; D4, replicate 1 (Mock 16.98)): 12.54
- growth rate of Mof KO cells ([3]; D4, replicate 2 (Mock 18.95)): 11.46
- growth rate of Mof KO cells ([3]; D5, average of two replicates (D0 = 1; Mock 25.18)): 15.215
- growth rate of Mof KO cells ([3]; D5, replicate 1 (Mock 26.41)): 14.49
- growth rate of Mof KO cells ([3]; D5, replicate 2 (Mock 23.95)): 15.94
- growth, 4OHT average relative to Mock ([3]; D4): 66.7965
- growth, 4OHT average relative to Mock ([3]; D5): 60.4249

Molecule: CC(=O)NCCCC[C@H](N)C(=O)O [Kac]
- chemical shift perturbations (CSPs) [4]: failed to induce CSPs

Molecule: H4K16ac (11–21): H4K16ac peptide (residues 11–21) used for NMR structure; 15N/13C-labeled form synthesized by Bio-Synthesis
- saturation of MLL4-PHD6 by 3-fold excess of peptide ([4]; 7.5 mM H4K16ac (11–21) with 2.5 mM 13C/15N-labeled MLL4-PHD6, 20 mM Tris-HCl pH 7.0, 100 mM NaCl, 5 mM DTT, 8% D2O, 298 K, 1H,15N HSQC and 1H,13C HSQC): almost saturated

Molecule: H4_1–9: H4 peptide (residues 1–9 of H4) (SGRGKGGKG)
- chemical shift perturbations (CSPs) [4]: no chemical shift perturbations

Molecule: H4_8–25: peptide encompassing residues 8–25 of H4 (KGLGKGGAKRHRKVLRDN)
- chemical shift perturbations (CSPs) [4]: CSPs similar in directions to CSPs induced by the longer H4_1–23 peptide

Molecule: H4_12–23: peptide encompassing residues 12–23 of H4 (KGGAKRHRKVLR)
- chemical shift perturbations (CSPs) [4]: CSPs similar in directions to CSPs induced by the longer H4_1–23 peptide

Molecule: linked H4-MLL4-PHD6 construct: aa 11–23 of H4, hepta-glycine (GGGGGGG) linker, aa 1503–1562 of MLL4-PHD6
- spectral changes on mutation (MLL4-PHD6; H4K12 mutated to alanine in linked construct): only small spectral changes
- spectral changes on mutation (MLL4-PHD6; H4K23 mutated to alanine in linked construct): only small spectral changes
- binding of the H4 region in linked construct (MLL4-PHD6; H4 aa 11–23, hepta-glycine linker, MLL4-PHD6, no mutation): tightly bound to the protein
- complex formation on mutation (MLL4-PHD6; K16 and R17 of H4 mutated to alanine in linked construct): disrupted formation of the complex

B1: histone H4 (8-25) peptide (peptide, UniProt P62805 9-26, looked up)
peptide: KGLGKGGAKRHRKVLRDN
notes: histone H4, residues 8-25, unmodified; source: synthetic peptide (SynPeptide)
- binding result [5]: binds

B2: histone H4K16ac (11-21) peptide (peptide, UniProt P62805 12-22, looked up)
peptide: GKGGAK(Ac)RHRKV
notes: histone H4, residues 11-21, acetylated at K16; source: synthetic peptide
- binding result [6]: binds

B3: H4 (residues 11–23) part of the linked H4-G7-MLL4-PHD6 construct, wild type (domain or fragment, UniProt P62805 12-24, looked up)
chain: GKGGAKRHRKVLR
notes: histone H4, residues 11-23; in the assay this stretch stood on ONE chain with m16: H4 11-23, hepta-glycine linker GGGGGGG, MLL4-PHD6; cloned into pDEST-15; also called H4_(11–23)-G7-PHD6 (H4 part); linked H4-MLL4-PHD6 construct; source: E. coli Rosetta2 (DE3) pLysS, purified
- binding result [7]: binds

B4: H4 (residues 11–23) K12A part of the linked H4-G7-MLL4-PHD6 construct (domain or fragment, UniProt P62805 12-24, looked up)
chain: GAGGAKRHRKVLR
notes: histone H4, residues 11-23, K12A; on one chain with m16 through a GGGGGGG linker; also called H4K12 to alanine in the linked construct; source: E. coli Rosetta2 (DE3) pLysS, purified as WT protein
- binding result [7]: binds

B5: histone H4 peptide, residues 8–25 (peptide, UniProt P62805 9-26, looked up)
peptide: KGLGKGGAKRHRKVLRDN
notes: histone H4, residues 8-25; source: synthetic peptide (SynPeptide)
- binding result [8]: binds

B6: histone H4 peptide, residues 12–23 (peptide, UniProt P62805 13-24, looked up)
peptide: KGGAKRHRKVLR
notes: histone H4, residues 12-23; also called H4_(12–23); source: synthetic peptide (SynPeptide)
- binding result [8]: binds

B7: histone H4K16ac peptide, residues 11–21 (peptide, UniProt P62805 12-22, looked up)
peptide: GKGGAK(Ac)RHRKV
notes: histone H4, residues 11-21, acetylated at K16; a 15N/13C-labelled copy (Bio-Synthesis) was used to validate assignments; in the structure calculation only G13GAKacRH18 was used, with N-terminal acetyl and C-terminal N-Me amide caps; also called H4K16ac (11–21) peptide; source: synthetic peptide
- binding result [9]: binds
